Test results from publication PMC8223974, “Anti-Cancer and Immunomodulatory Activity of a Polyethylene Glycol-Betulinic Acid Conjugate on Pancreatic Cancer Cells” (Life, 2021).
“And” between values parts separate entries of the source, which are not always exact repeats. Equal entries are not always repeated.

Tests used:
Vero cells = test: XTT cytotoxicity assay on Vero cells; type: cell-based; settings: 72 h
Protocol: The cytotoxic effect of BA and PEG–BA was assessed using the 2,3-bis-(2-methoxy-4-nitro-5-sulfophenyl)-2H-tetrazolium-5-carboxanilide (XTT) assay, an improved tetrazolium dye based assay that obviates the solubilisation step [41]. A concentration of 1 × 10^5 cells/mL each of adherent MIA PaCa-2 and Vero cells were seeded into 96-well plates (BD Biosciences, San Diego, California, USA) overnight before treatment with the compounds at concentrations ranging from 0.4 to 100 µM for 72 h. Doxorubicin (0.2 µg/mL) was used as a positive control for cell death assessment and DMSO was used as a vehicle control. After treatment, washed cells (433× g, 5 min, 25 °C) were exposed to 125 µL of complete DMEM containing 25 µL of XTT solution and incubated (37 °C, 5% CO2, 95% humidity) for 4 h. The optical density of the mixture was measured at 450 nm with a background at 690 nm using a Multiskan Ascent 96/384 microplate reader (Labsystem, Vantaa, Finland). Cell viability was determined as a percentage relative to the vehicle control. The IC50 was then calculated using GraphPad Prism 6 (GraphPad Software, Inc, San Diego, CA, USA). […] Statistical significance was calculated using a two-way analysis of variant (ANOVA) and the Bonferroni post-test to compare replicate means in GraphPad Prism 6 (GraphPad Software, Inc, San Diego, CA, USA). […]

[1] = MTT cytotoxicity assay on PBMCs; type: cell-based, human; settings: human, peripheral blood mononuclear cells (PBMCs), n = 4, read-out: PBMC viability
Protocol: (§1) The supernatant obtained from PBMCs (1 × 10^6 cells/mL) treated and incubated (72 h, 37 °C, 5% CO2, 95% humidity) with BA and PEG–BA (3 µM) were used for this assay. Cytotoxicity was performed on isolated PBMCs (see Supplementary Materials for isolation protocol) using the 3-(4,5-dimethylthiazol-2-yl)-2,5-diphenyl tetrazolium bromide (MTT) assay as previously described. For the cytometric bead array (CBA) assay, the PBMCs were isolated from both consenting PC patients (n = 4) and healthy control donors (n = 2). Ethics clearance to collect blood samples was obtained from the Human Research Ethics Committee (Medical) of the University of the Witwatersrand (M170440). The PBMCs were stimulated with 2 µg/mL of phytohaemagglutinin-protein (PHA-P). After the 72 h incubation period, the cells and medium were transferred to 5 mL Falcon® round-bottom polypropylene tubes and centrifuged at 433× g for 5 min at room temperature. Aliquots of the cell-free supernatant were collected and stored at −80 °C until needed for experiments.

[2] = system: peripheral blood mononuclear cells (PBMCs); test: MTT cytotoxicity assay on PBMCs; type: cell-based, human; settings: 3 µM
Protocol: as §1

IL-6 = test: Cytometric bead array Th1/Th2/Th17, IL-6 in supernatant of PHA-P stimulated PBMCs; type: cell-based, human; settings: 3 µM, 72 h
Protocol: as §1, with “After the 72 h incubation period, the cells and medium were transferred to 5 mL Falcon® round-bottom polypropylene tubes and centrifuged at 433× g for 5 min at room temperature. Aliquots of the cell-free supernatant were collected and stored at −80 °C until needed for experiments.” left out
The CBA Th1/Th2/Th17 assay was performed according to the manufacturer’s instructions (BD Biosciences, La Jolla, San Diego, CA, USA) and as previously described, but with minor modifications. […] Specific fluorescence associated with each bead population was detected using flow cytometry allowing for the identification of the various cytokines in the sample. […] Acquired FCS files were analysed using a flow cytometric analysis software (FCAPArray™) from BD Biosciences. Interferon-gamma (IFN-γ), TNF-α, IL-2, IL-4, IL-6, IL-10 and IL-17A concentrations were all determined from standard curves. […]

MIA PaCa-2 cells [3] = test: Annexin V-FITC / propidium iodide apoptosis detection by flow cytometry; type: cell-based, human; settings: 4 µM, 72 h
Protocol: The mode of cell death induced by the BA and PEG–BA on MIA PaCa-2 and Vero cells was assessed using the Annexin V-FITC Apoptosis kit I (BD Biosciences, San Diego, CA, USA). The assay was performed per the manufacturer’s protocol and as previously described with slight modifications. The cells were analysed for apoptosis and necrosis after acquiring 30,000 events using a BD LSRFortessa™ Analyser (BD Biosciences, San Diego, CA, USA). The BD FACSDiva software was used to detect fluorescein isothiocyanate (FITC) positive signals for apoptotic cells (Annexin-v positive) on a 530/30 filter and peridinin–chlorophyll–protein (PerCP) positive signals for necrotic cells (propidium iodide positive) on a 610/20 band pass filter. Apoptosis was determined at three different concentrations around the IC50, 1, 1.7 and 4 µM. Doxorubicin (0.2 ug/mL) was used as a positive control for apoptosis induction. The data were exported as flow cytometry standard (FCS) files and analysed using FlowJo software Version 10 (FlowJo, LLC, Ashland, OR, USA). The data were exported and represented as means ± standard error of three independent experiments using GraphPad Prism 6.

MIA PaCa-2 cells [4] = test: XTT cytotoxicity assay on MIA PaCa-2 cells; type: cell-based; settings: 72 h
Protocol: The cytotoxic effect of BA and PEG–BA was assessed using the 2,3-bis-(2-methoxy-4-nitro-5-sulfophenyl)-2H-tetrazolium-5-carboxanilide (XTT) assay, an improved tetrazolium dye based assay that obviates the solubilisation step [41]. A concentration of 1 × 10^5 cells/mL each of adherent MIA PaCa-2 and Vero cells were seeded into 96-well plates (BD Biosciences, San Diego, California, USA) overnight before treatment with the compounds at concentrations ranging from 0.4 to 100 µM for 72 h. Doxorubicin (0.2 µg/mL) was used as a positive control for cell death assessment and DMSO was used as a vehicle control. After treatment, washed cells (433× g, 5 min, 25 °C) were exposed to 125 µL of complete DMEM containing 25 µL of XTT solution and incubated (37 °C, 5% CO2, 95% humidity) for 4 h. The optical density of the mixture was measured at 450 nm with a background at 690 nm using a Multiskan Ascent 96/384 microplate reader (Labsystem, Vantaa, Finland). Cell viability was determined as a percentage relative to the vehicle control. The IC50 was then calculated using GraphPad Prism 6 (GraphPad Software, Inc, San Diego, CA, USA). The selectivity index (IC50 Vero cells/IC50 MIA PaCa-2) and potentiation factor (PF50) at 50% growth inhibition (IC50) were also determined. The PF50 is the IC50 value of free drug divided by the IC50 value obtained from a combination of drugs, which is the polymer drug conjugate in this case. Statistical significance was calculated using a two-way analysis of variant (ANOVA) and the Bonferroni post-test to compare replicate means in GraphPad Prism 6 (GraphPad Software, Inc, San Diego, CA, USA). A p < 0.05 was considered to be statistically significant.

| SMILES | IC50 (Vero cells; Primates, XTT) | viability at 72 h, 3 µM [1] | cytotoxicity on PBMCs [2] | IL-6 concentration (IL-6; PBMCs of PC patients (n = 4), average) | IL-6 concentration (IL-6; PBMCs of control participants (n = 2)) | highest apoptotic effect (mainly late-apoptotic phase) (MIA PaCa-2 cells [3]) | IC50 (MIA PaCa-2 cells [4]; Homo sapiens, MIA PaCa-2 cells, XTT) | selectivity index (SI) (IC50 Vero cells/IC50 MIA PaCa-2) (MIA PaCa-2 cells [4]; Vero vs MIA PaCa-2, XTT) | cell death (cytotoxicity) (Vero cells; 0.2 µg/mL (0.4 µM)) | cell death (cytotoxicity) (MIA PaCa-2 cells [4]; MIA PaCa-2 cells, 0.2 µg/mL (0.4 µM)) |
| --- | --- | --- | --- | --- | --- | --- | --- | --- | --- | --- |
| C=C(C)[C@@H]1CC[C@]2(C(=O)O)CC[C@]3(C)[C@H](CC[C@@H]4[C@@]5(C)CC[C@H](O)C(C)(C)[C@@H]5CC[C@]43C)[C@@H]12 [BA, betulinic acid] | 18.2 ± 0.09 µM | 9.2 ± 0.8% | 49.2 ± 0.8% | 5430.94 pg/mL | 396.24 pg/mL | 31.43 ± 16.7% | 12.7 ± 0.34 µM | 1.4 and 1.43 |  |  |
| COc1cccc2c1C(=O)c1c(O)c3c(c(O)c1C2=O)C[C@@](O)(C(=O)CO)C[C@@H]3O[C@H]1C[C@H](N)[C@H](O)[C@H](C)O1 [Doxorubicin] |  |  |  |  |  |  |  |  | 43.24 ± 14.2% | 83.3 ± 1.6% |
